Laboratory results from US10143748B2, “B-cell reduction using CD37-specific and CD20-specific binding molecules” (Emergent Product Development Seattle, LLC, priority 2005, dated 2018).

Experiments:
[1] = test system: Ramos B cells; test: CDC assay, Ramos B cells with human serum complement, propidium iodide; assay type: cell-based; settings: for CDC activity with human complement, single reagent: Ramos B cells, human serum
Method: (§1) The cells were incubated 60 minutes at 37° C. […] Samples were incubated 15 minutes at room temperature in the dark prior to analysis by flow cytometry using a FACsCalibur and CellQuest software (Becton Dickinson).
as §1

[2] = biological target: T1, CD37 (Homo sapiens, UniProt P11049); test: binding of TRU-016 SEC fractions to Ramos cells, flow cytometry; parameters: Ramos cells expressing the CD20 and CD37 target antigens; endogenous in cells; host or cells: Ramos B-cell lymphoma line; settings: FITC goat anti-human IgG, FIG. 5A
T1 sequence (P11049 1-281): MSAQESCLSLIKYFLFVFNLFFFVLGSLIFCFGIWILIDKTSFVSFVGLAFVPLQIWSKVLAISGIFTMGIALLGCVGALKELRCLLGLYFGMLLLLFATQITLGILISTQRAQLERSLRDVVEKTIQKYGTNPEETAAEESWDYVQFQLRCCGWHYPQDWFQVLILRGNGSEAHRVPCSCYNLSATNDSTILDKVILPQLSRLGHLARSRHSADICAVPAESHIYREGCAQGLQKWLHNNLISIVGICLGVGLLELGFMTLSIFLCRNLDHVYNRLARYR
Method: To determine the binding properties of SEC fractions, cells were suspended in staining media at a concentration of approximately 4×10^6 cells/mL and then plated at 50 μl/well (2×10^5 cells/well) in staining media. Serial dilutions of SEC fractions were then added to sequential wells, incubated for 45 minutes, washed, and binding activity was detected using FITC goat anti-human IgG. Samples were fixed in 200 μl 1% paraformaldehyde in PBS. Cells were analyzed by flow cytometry on a FACsCalibur instrument using Cell Quest software (BD Biosciences, San Jose, Calif.) (FIG. 5A).

[3] = biological target: T2, C1q (Homo sapiens, UniProt P02745+P02746+P02747); test: FITC C1q binding to reagent-coated Ramos B cells in normal human serum; settings: normal human serum 1.25-10%, FIG. 3A
T2 construct: normal human serum (NHS, #A113, Quidel Corp., San Diego, Calif.); tissue Quidel Corp. A113; host or cells: normal human serum (purchased), added to reagent-coated Ramos B cells
Method: C1q binding studies were performed as previously described (Cragg et al., Blood 2004, 103:2738-2743). Briefly, Ramos B-cells in Iscoves media (#12440-053, Gibco/Invitrogen, Grand island, NY) with no serum were plated in 96-well V bottom plates at 5×10^5/well in 100 μl. Cells were incubated with reagents for 15 minutes at 37° C., and normal human serum (NHS, #A113, Quidel Corp., San Diego, Calif.) diluted in Iscoves was then added at a volume of 50 μl to each well for a final concentration of 10, 5, 2.5, or 1.25% human serum. Fifty μl of media was added to the control well. For cobra venom factor (CVF) experiments, CVF was added to human serum complement samples at 20 Units CVF/mL of serum for 90 minutes at 37° C. prior to addition of serum to complement assays, and the dilution of serum by CVF accounted for when making sample dilutions.
The cells plus complement source were incubated for an additional 5 minutes at 37° C., and washed 2 times with cold PBS (#14040-133, Gibco/Invitrogen, Grand Island, N.Y.) via centrifugation and resuspended in 100 μl of PBS. Fifty μl from each well was transferred to a second plate for second step control staining. […] Samples were washed, resuspended in cold PBS, and read immediately on a FACsCalibur flow cytometer and analyzed with Cell Quest software (Becton Dickinson, San Jose, Calif.).

[4] = test system: BJAB B cells; test: ADCC 51Cr release assay, BJAB targets, human PBMC effectors; assay type: cell-based; settings: 10 ng/mL to 20 μg/mL, effector:target 25:1, 6 hours, FIG. 5C
Method: To determine the ADCC activity of SEC fractions, BJAB, Ramos, and Daudi lymphoblastoid B cells (10^7) cells were labeled with 500 μCi/mL ^51Cr sodium chromate for 2 hours at 37° C. in IMDM/10% FBS. PBMCs were isolated from heparinized, human whole blood by fractionation over Lymphocyte Separation Media (LSM, ICN Biomedical) gradients. Reagent samples were added to RPMI media with 10% FBS and five serial dilutions for each reagent were prepared. For combinations, the reagents were premixed and diluted prior to addition to the wells. The ^51Cr labeled BJAB were added at (2×10^4 cells/well). The PBMCs were then added at (5×10^5 cells/well) for a final ratio of 25:1 effectors (PBMC):targets (BJAB). […] CPM released was measured on a Packard TopCounNXT from 50 μl dried culture supernatant. Percent specific killing was calculated by subtracting (cpm [mean of quadruplicate samples] of sample—cpm spontaneous release)/(cpm maximal release-cpm spontaneous release)×100 (FIG. 5C).
BJAB, Ramos, and Daudi lymphoblastoid B cells (10E7) cells were labeled with 500 μCi/mL ^51Cr sodium chromate for 2 hours at 37° C. in IMDM/10% FBS. […] Cells were counted by trypan blue exclusion using a hemacytometer prior to use in subsequent assays. […]
Effectors and targets were added to media alone to measure background killing. […] CPM released was measured on a Packard TopCounNXT. […]

[5] = test system: Daudi cells; test: Annexin V/PI apoptosis analysis, Daudi; assay type: cell-based, human
Method: Further experiments examining the effect of TRU-016 on B cell line apoptosis were performed using the more highly purified dimer form of TRU-016 (FIG. 19B). Samples were analyzed at both 24 and 48 hours after initiation of incubation reactions. Annexin/PI analysis was performed on several cell types using 20 μg/mL TRU-016 protein. Because apoptosis was reduced using the dimer form of TRU-016, 20 μg/mL goat anti-human IgG was added to reactions in order to cross link reagents on the cell surface. Cells were then stained with Annexin V-FITC and propidium iodide.

[6] = test system: Ramos B cells; test: CDC assay, Ramos B cells with rabbit complement; assay type: cell-based, human; settings: 10 μg/ml reagent, rabbit complement 10, 5 or 2.5%, FIG. 3C
Method: Human and rabbit complement were then compared for their CDC activity in the presence of the TRU-016. The CDC activity of TRU-016 molecular forms incubated with Ramos B cells and human or rabbit complement was measured (FIG. 3C). Ramos B cells were added to wells in serum free media. […] Cells plus complement source were incubated 90 minutes at 37° C. Cells were washed once with cold PBS and propidium iodide (Molecular Probes #P3566) added to a final concentration of 0.5 μg/mL in cold PBS. Cells with PI were incubated in the dark at RT for 15 minutes and analyzed by flow cytometry.

[7] = test system: Ramos cells; test: ADCC assay, labeled Ramos targets, human PBMC effectors; assay type: cell-based; settings: effector to target ratio 25:1, FIG. 18D
Method: To determine the ADCC activity of SEC fractions, BJAB, Ramos, and Daudi lymphoblastoid B cells (10^7) cells were labeled with 500 μCi/mL ^51Cr sodium chromate for 2 hours at 37° C. in IMDM/10% FBS. PBMCs were isolated from heparinized, human whole blood by fractionation over Lymphocyte Separation Media (LSM, ICN Biomedical) gradients. Reagent samples were added to RPMI media with 10% FBS and five serial dilutions for each reagent were prepared. For combinations, the reagents were premixed and diluted prior to addition to the wells. The ^51Cr labeled BJAB were added at (2×10^4 cells/well). The PBMCs were then added at (5×10^5 cells/well) for a final ratio of 25:1 effectors (PBMC):targets (BJAB). Reactions were set up in quadruplicate wells of a 96 well plate. TRU-016 SEC fractions were added to wells at a final concentration ranging from 10 ng/mL to 20 μg/mL as indicated on the graphs. Each data series plots a different SEC fraction at the titration ranges described. Reactions were allowed to proceed for 6 hours at 37° C. in 5% CO2 prior to harvesting and counting. CPM released was measured on a Packard TopCounNXT from 50 μl dried culture supernatant. Percent specific killing was calculated by subtracting (cpm [mean of quadruplicate samples] of sample—cpm spontaneous release)/(cpm maximal release-cpm spontaneous release)×100 (FIG. 5C).

T2 sequence (P02745 23-245): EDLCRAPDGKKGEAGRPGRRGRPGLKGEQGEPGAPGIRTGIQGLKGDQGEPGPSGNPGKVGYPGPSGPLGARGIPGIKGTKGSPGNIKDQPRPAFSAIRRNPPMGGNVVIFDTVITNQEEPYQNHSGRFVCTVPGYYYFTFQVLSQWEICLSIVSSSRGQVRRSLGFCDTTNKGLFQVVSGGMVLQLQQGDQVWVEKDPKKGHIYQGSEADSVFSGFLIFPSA
T2 sequence (P02746 28-253): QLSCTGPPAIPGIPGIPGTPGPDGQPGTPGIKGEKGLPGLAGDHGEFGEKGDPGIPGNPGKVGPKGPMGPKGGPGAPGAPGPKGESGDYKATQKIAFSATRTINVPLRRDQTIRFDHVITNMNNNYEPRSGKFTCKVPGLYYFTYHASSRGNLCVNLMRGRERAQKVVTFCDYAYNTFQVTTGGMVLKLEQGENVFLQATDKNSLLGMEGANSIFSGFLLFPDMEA
T2 sequence (P02747 29-245): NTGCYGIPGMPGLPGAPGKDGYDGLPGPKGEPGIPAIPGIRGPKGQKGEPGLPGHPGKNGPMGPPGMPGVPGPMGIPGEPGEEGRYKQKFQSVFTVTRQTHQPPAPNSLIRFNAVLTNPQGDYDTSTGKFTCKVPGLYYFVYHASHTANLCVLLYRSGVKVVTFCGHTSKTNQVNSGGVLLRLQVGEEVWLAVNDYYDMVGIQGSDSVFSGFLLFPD

Substance: HMW multimer fraction: higher molecular weight multimers of TRU-016 separated by SEC
- CDC activity with human complement, single reagent [1]: significant levels of CDC activity
- CDC cell killing in the presence of CVF ([1]; human serum complement with cobra venom factor, FIG. 3B): significantly reduced in the presence of CVF
- binding to Ramos cells (titration curves) [2]: better binding
- FITC C1q binding [3]: more binding than the other forms
- ADCC, % specific killing [4]: potent, dose-dependent ADCC

Substance: TRU-016 dimer peak: dimer form of TRU-016 isolated by GPC and HPLC fractionation from higher molecular weight multimers
- CDC activity with human complement, single reagent [1]: poor mediator of CDC
- CDC activity with human complement, single reagent ([1]; listed as dimer form of the TRU-016): very low CDC activity
- CDC activity with human complement, single reagent ([1]; listed as dimer peak): very little or no CDC activity
- apoptosis of Daudi cells with crosslinking agent ([5]; 20 μg/mL plus 20 μg/mL goat anti-human IgG): significant increase in the level of CD37 targeted apoptosis
- apoptosis of Daudi cells ([5]; 20 μg/mL, 24-48 hours, FIG. 19B): induces apoptosis of Daudi cells
- CDC activity with rabbit complement [6]: good CDC
- ADCC against Ramos cells [7]: significant levels of ADCC
- ADCC, % specific killing [4]: potent, dose-dependent ADCC
